According to patent US12171901B2, “Powdered collagen wound care compositions” (priority 2021, dated 2024):
Several values for one entry are separate records, joined by “and”; a condition that tells them apart may be missing. Equal values may be shown once.

System: skin of female albino New Zealand White rabbits
Assay: Rabbit skin irritation
Procedure: Within 24 hours to 4 hours before test application, the backs of female albino New Zealand White rabbits were clipped free of hair, exposing 2 test and 2 control areas on each side of the spine with a size of approximately 15 cm×15 cm. The two test sites are located on the left cranial section and the right caudal section of the dorsal region. The two control sites are located on the left caudal and right cranial section of the dorsal region. FIG. 2 depicts the arrangement of test and control sites. The exposed skin is wiped with alcohol and dried. Rabbits of acceptable skin quality were selected and used for testing.
A 25×25 mm gauze patch saturated with 0.5 mL of 0.9% NaCl is used for the control and applied to the clipped control sites. The patches are secured using hypoallergenic, waterproof, surgical tape over the test and control sites. The animal's trunk is securely wrapped so as to maintain the position of the patches. Patches are left applied for a minimum of four hours.
After patch removal, the test and control sites were then scored for erythema and edema at 1, 24, 48 and 72 hours after patch removal. Only the 24, 48, and 72 hour observations were scored and used for calculations. If no response was expected, testing was conducted using three animals per test article. If irritation was anticipated, one animal was tested initially. If the first animal received a score of 2 or less for either erythema or edema, 2 additional rabbits were used to conclude the test.
This total was divided by the total number of observations. The same was done for the control sites. […] These scores for each animal were added and divided by the total number of animals to give the Primary Irritation Index. […] For any response, the Maximum Irritation Response, the time of onset of the response and the time of maximum response was recorded.
To positively validate the test, 10% sodium dodecyl sulfate (SDS), which is a known dermal irritant, in petroleum jelly was applied to a 2.5 cm×2.5 cm gauze patch. As a negative control, 0.5 mL of 0.9% NaCl was applied to a 2.5 cm×2.5 cm gauze patch. A Primary Irritation Index in the moderate to severe range is considered a positive result. The test system and methods utilized were the same as described above.

[1] = per rabbit, 24, 48 and 72 hour observations after patch removal, direct application, sulfate

CCCCCCCCCCCCOS(=O)(=O)[O-].[Na+] [10% SDS, sodium dodecyl sulfate] was tested, and the “Primary Irritation Index” value (3 animals) was 6.4, the “Total Average (sum over animals)” value (3 animals) was 19.3 and the “ED (edema) score sum” value [1] was 19 and 21 and 14. For the same compound, the “ER (erythema) score sum” value [1] was 21 and 23 and 18 and the “ER + ED = Total” value [1] was 40 and 44 and 32.
